Assay results: patent publication US9464120B2, “Compositions for treatment of celiac disease” (ImmusanT, Inc., priority 2008, dated 2016)
Square brackets hold non-standard residues; d marks the D form. Peptide text beside a SMILES is read from it. pGlu = O=C1CC[C@@H](C(=O)O)N1

How the values were obtained:
[1] = tested on: gluten peptide-specific T cells in PBMC from HLA-DQ2+ celiac disease donors; assay: IFNγ ELISpot of PBMC collected on day 6 after oral gluten challenge; format: cell-based, human; conditions: for donors with IFNγ ELISpot response: 9 HLA DQ2 celiac disease donors, PBMC day 6 after wheat gluten challenge, 17mer and 33mer at 5 μM; for requirement for deamidation for T cell stimulation / dominance according to the grain consumed: second round libraries; for relative T-cell stimulatory activity: PBMC after wheat challenge, tTG pre-treated or glutamate substituted; for activity relative to α-gliadin p57-73 QE65: pre-treated with tTG or with glutamate at position 9, 25 μg/ml, mean±SEM, n=5 donors; for dominance according to the grain consumed: wheat, barley or rye gluten challenge
[2] = Pharmacokinetics after bolus intradermal injection in an adult rat; format: in vivo; conditions: rat, in vivo, 0.9 mg; for half-life: T1/2 half life
Procedure: To improve their chemical stability and increase resistance to exopeptidases, peptides were synthesised as acetate salts of “capped” N-pyroglutamate, C-amide: NPL001 (SEQ ID NO:228), NPL002 (SEQ ID NO:229) and NPL003 (SEQ ID NO:230) 15mers or 16mers with glutamate at sites predicted to be deamidated by tTG. Indeed, capping extended the half-lives of peptides from 10-12 minutes for free peptides: NPL033, NPL038, and NPL034 (SEQ ID NOs:13, 320 and 321) after bolus intradermal injection of 0.9 mg in 0.1 ml in an adult rat to 26-28 minutes with N-pyroglutamate and C-amidation (SEQ ID NOs:228, 229 and 230) or 19-24 minutes with N-acetylation and C-amidation (SEQ ID NOs:231, 232, and 233), (see Table 4).

[3] = tested on: gluten peptide-specific T cells in PBMC from HLA-DQ2+ celiac disease donors; conditions: day-6 PBMC, cited from earlier work

15mer encompassing deamidated DQ2-γ-IV: deamidated 15mer encompassing the epitope DQ2-γ-IV SQPEQEFPQ reported for intestinal T cell clones [reference compound]
donors with IFNγ ELISpot response [1]: One

NC(=O)CC[C@H](NC(=O)[C@H](Cc1c[nH]c2ccccc12)NC(=O)[C@@H]1CCCN1C(=O)[C@H](Cc1ccccc1)NC(=O)[C@@H]1CCCN1C(=O)[C@H](CCC(N)=O)NC(=O)[C@H](CCC(=O)O)NC(=O)[C@@H]1CCCN1C(=O)[C@H](CCC(N)=O)NC(=O)[C@@H]1CCCN1C(=O)[C@H](Cc1ccccc1)NC(=O)[C@@H]1CCCN1C(=O)[C@H](CCC(N)=O)NC(=O)[C@@H]1CCC(=O)N1)C(=O)N1CCC[C@H]1C(N)=O [NPL002, pyroEQPFPQPEQPFPWQP-amide] ([pGlu]QPFPQPEQPFPWQP-NH2)
AUC area under the curve (bioavailability) [2]: AUC 81514
T1/2 half life [2]: T1/2 27.18 minutes
half-life [2]: 26 to 28 min
bioactivity after lysine-substitution of the central PQPEQPF sequence ([1]; 32 μg/ml, after wheat (n=7), barley (n=9) or rye challenge (n=10)): abolished the bioactivity
effect of anti-HLA-DQ / -DR preincubation on IFNγ ELISpot response ([1]; PBMC from HLA DQA1*05 DQB1*02 homozygotes and heterozygotes, data not shown): anti-HLA-DQ but not -DR abolished

CC[C@H](C)[C@H](NC(=O)[C@@H]1CCCN1C(=O)[C@H](CCC(N)=O)NC(=O)[C@H](CCC(=O)O)NC(=O)[C@@H]1CCCN1C(=O)[C@@H]1CCC(=O)N1)C(=O)N1CCC[C@H]1C(=O)N[C@@H](CCC(=O)O)C(=O)N[C@@H](CCC(N)=O)C(=O)N1CCC[C@H]1C(=O)N[C@@H](CCC(N)=O)C(=O)N1CCC[C@H]1C(=O)N[C@@H](Cc1ccc(O)cc1)C(=O)N1CCC[C@H]1C(=O)N[C@@H](CCC(N)=O)C(=O)N[C@@H](CCC(N)=O)C(N)=O [NPL003, pyroEPEQPIPEQPQPYPQQ-amide] ([pGlu]PEQPIPEQPQPYPQQ-NH2)
half-life [2]: 26 to 28 min

CC(=O)N[C@@H](CCC(N)=O)C(=O)N[C@@H](CC(C)C)C(=O)N[C@@H](CCC(N)=O)C(=O)N1CCC[C@H]1C(=O)N[C@@H](Cc1ccccc1)C(=O)N1CCC[C@H]1C(=O)N[C@@H](CCC(N)=O)C(=O)N1CCC[C@H]1C(=O)N[C@@H](CCC(=O)O)C(=O)N[C@@H](CC(C)C)C(=O)N1CCC[C@H]1C(=O)N[C@@H](Cc1ccc(O)cc1)C(=O)N1CCC[C@H]1C(=O)N[C@@H](CCC(N)=O)C(=O)N1CCC[C@H]1C(=O)N[C@@H](CCC(N)=O)C(N)=O [NPL030, Ac-QLQPFPQPELPYPQPQ-amide] (Ac-QLQPFPQPELPYPQPQ-NH2)
AUC area under the curve (bioavailability) [2]: AUC 43474
T1/2 half life [2]: T1/2 19.4 minutes
half-life [2]: 19 to 24 min

CC(=O)N[C@@H](CCC(N)=O)C(=O)N[C@@H](CCC(N)=O)C(=O)N1CCC[C@H]1C(=O)N[C@@H](Cc1ccccc1)C(=O)N1CCC[C@H]1C(=O)N[C@@H](CCC(N)=O)C(=O)N1CCC[C@H]1C(=O)N[C@@H](CCC(=O)O)C(=O)N[C@@H](CCC(N)=O)C(=O)N1CCC[C@H]1C(=O)N[C@@H](Cc1ccccc1)C(=O)N1CCC[C@H]1C(=O)N[C@@H](Cc1c[nH]c2ccccc12)C(=O)N[C@@H](CCC(N)=O)C(=O)N1CCC[C@H]1C(N)=O [NPL031, Ac-QQPFPQPEQPFPWQP-amide] (Ac-QQPFPQPEQPFPWQP-NH2)
AUC area under the curve (bioavailability) [2]: AUC 80263
T1/2 half life [2]: T1/2 22.9 minutes
half-life [2]: 19 to 24 min

CC[C@H](C)[C@H](NC(=O)[C@@H]1CCCN1C(=O)[C@H](CCC(N)=O)NC(=O)[C@H](CCC(=O)O)NC(=O)[C@@H]1CCCN1C(=O)[C@H](Cc1ccccc1)NC(C)=O)C(=O)N1CCC[C@H]1C(=O)N[C@@H](CCC(=O)O)C(=O)N[C@@H](CCC(N)=O)C(=O)N1CCC[C@H]1C(=O)N[C@@H](CCC(N)=O)C(=O)N1CCC[C@H]1C(=O)N[C@@H](Cc1ccc(O)cc1)C(=O)N1CCC[C@H]1C(=O)N[C@@H](CCC(N)=O)C(=O)N[C@@H](CCC(N)=O)C(N)=O [NPL032, Ac-FPEQPIPEQPQPYPQQ-amide] (Ac-FPEQPIPEQPQPYPQQ-NH2)
AUC area under the curve (bioavailability) [2]: AUC 8206
T1/2 half life [2]: T1/2 12.5 minutes
half-life [2]: 19 to 24 min

CC(C)C[C@H](NC(=O)[C@H](CCC(=O)O)NC(=O)[C@@H]1CCCN1C(=O)[C@H](CCC(N)=O)NC(=O)[C@@H]1CCCN1C(=O)[C@H](Cc1ccccc1)NC(=O)[C@@H]1CCCN1C(=O)[C@H](CCC(N)=O)NC(=O)[C@@H](N)CC(C)C)C(=O)N1CCC[C@H]1C(=O)N[C@@H](Cc1ccc(O)cc1)C(=O)N1CCC[C@H]1C(=O)N[C@@H](CCC(N)=O)C(=O)N1CCC[C@H]1C(=O)N[C@@H](CCC(N)=O)C(=O)O [NPL033, LQPFPQPELPYPQPQ] (H-LQPFPQPELPYPQPQ-OH)
AUC area under the curve (bioavailability) [2]: AUC 2618
half-life [2]: 10 to 12 min

CC[C@H](C)[C@H](NC(=O)[C@@H]1CCCN1C(=O)[C@H](CCC(N)=O)NC(=O)[C@H](CCC(=O)O)NC(=O)[C@@H]1CCCN1C(=O)[C@@H](N)Cc1ccccc1)C(=O)N1CCC[C@H]1C(=O)N[C@@H](CCC(=O)O)C(=O)N[C@@H](CCC(N)=O)C(=O)N1CCC[C@H]1C(=O)N[C@@H](CCC(N)=O)C(=O)N1CCC[C@H]1C(=O)N[C@@H](Cc1ccc(O)cc1)C(=O)N1CCC[C@H]1C(=O)N[C@@H](CCC(N)=O)C(=O)N[C@@H](CCC(N)=O)C(=O)O [NPL034, FPEQPIPEQPQPYPQQ] (H-FPEQPIPEQPQPYPQQ-OH)
half-life [2]: 10 to 12 min

NC(=O)CC[C@H](NC(=O)[C@@H]1CCCN1)C(=O)N[C@@H](CCC(N)=O)C(=O)N1CCC[C@H]1C(=O)N[C@@H](Cc1ccccc1)C(=O)N1CCC[C@H]1C(=O)N[C@@H](CCC(N)=O)C(=O)N1CCC[C@H]1C(=O)N[C@@H](CCC(=O)O)C(=O)N[C@@H](CCC(N)=O)C(=O)N1CCC[C@H]1C(=O)N[C@@H](Cc1ccccc1)C(=O)N1CCC[C@H]1C(=O)N[C@@H](Cc1c[nH]c2ccccc12)C(=O)N[C@@H](CCC(N)=O)C(=O)N1CCC[C@H]1C(=O)O [NPL038, PQQPFPQPEQPFPWQP] (H-PQQPFPQPEQPFPWQP-OH)
AUC area under the curve (bioavailability) [2]: AUC 22393
T1/2 half life [2]: T1/2 13.2 minutes
half-life [2]: 10 to 12 min

GQGQSGYYPTSPQQSG (W29)
requirement for deamidation for T cell stimulation [1]: Exceptions to the requirement for deamidation

LQLQPFPQPELPYPQPELPYPQPELPYPQPQPF (deamidated alpha2-gliadin 56-88) [33mer, reference compound]
donors with IFNγ ELISpot response [1]: 7 donors

PGQGQSGYYPTSPQQS (W24)
requirement for deamidation for T cell stimulation [1]: Exceptions to the requirement for deamidation

PQPQPFLPELPYPQPQS (gluten derived peptide) [SEQ ID NO:26]
relative T-cell stimulatory activity [1]: almost as active as 17mers encompassing DQ2-α-II

PQPQPFLPQLPYPQPQS (gluten derived peptide) [W09]
relative T-cell stimulatory activity [1]: almost as active as 17mers encompassing DQ2-α-II

PQQPFPQPELPFPQQSE (deamidated AAG17702 (141-157)) [SEQ ID NO:29]
activity relative to α-gliadin p57-73 QE65 [1]: 32±6%

PQQPFPQPQLPFPQQSE (AAG17702 (141-157))
activity relative to α-gliadin p57-73 QE65 [1]: 32±6%

PQQPIPEQPQPYPQQP (B08-E7)
dominance according to the grain consumed [1]: only after barley gluten challenge

QGQPGYYPTSPQQIGQ (W22)
requirement for deamidation for T cell stimulation [1]: Exceptions to the requirement for deamidation

QGQQGYYPISPQQSGQ (W21)
requirement for deamidation for T cell stimulation [1]: Exceptions to the requirement for deamidation

QLQPFPQPELPYPQPQL (variant of alpha-gliadin p57-73 QE65) [SEQ ID NO:46]
donors with IFNγ ELISpot response [1]: 7 donors

QLQPFPQPELPYPQPQP (gluten derived peptide) [SEQ ID NO:225]
dominance according to the grain consumed [1]: dominant only after wheat gluten challenge

QLQPFPQPELPYPQPQS (alpha-gliadin p57-73 QE65) [α-gliadin p57-73 QE65]
IFNγ ELISpot response relative to tTG-treated gliadin in 3/17 donors ([3]; 3/17 donors): less than 5%
Median IFNγ ELISpot response as percentage of that to tTG-treated gliadin (500 μg/ml) ([3]; n=17, range 0-155%): 51%

QPEQPFPQPEQPFPWQP (W03-E7)
relative T-cell stimulatory activity [1]: equivalent in bioactivity
dominance according to the grain consumed [1]: universal dominant T cell stimulatory peptide in gluten

QPFPQQPEQIIPQQ (gluten derived peptide) [SEQ ID NO:323]
dominance according to the grain consumed [1]: only after rye gluten challenge

QPQQPFPQPEQPFPWQP (Q3 E10 variant) [SEQ ID NO:54]
relative T-cell stimulatory activity [1]: optimal immunogenicity

QYEVIRSLVRTLPNM (QYEVIRSLVLRTLPNM; W36)
requirement for deamidation for T cell stimulation [1]: Exceptions to the requirement for deamidation
